The values below come from ChEMBL document CHEMBL2034889, “The design and synthesis of novel, potent and orally bioavailable N-aryl piperazine-1-carboxamide CCR2 antagonists with very high hERG selectivity” (Bioorg Med Chem Lett, 2012).

In brackets after ≈: the same amount, converted by molar mass. A value given as a limit tells only on which side of the number the result lay.

Series [1] addresses T1, C-C chemokine receptor type 2 (Homo sapiens, UniProt P41597). Put plainly: Displacement of 125I-MCP1 from human CCR2 receptor expressed in human THP-1 cell membrane by SPA assay. It counts as cell membranes. In general terms: In a radioligand displacement assay an active substance lowers the binding of a labelled ligand.
In series [2] the target is T1, C-C chemokine receptor type 2. Put plainly: Antagonist activity at human CCR2 receptor expressed in human THP-1 cells assessed as inhibition of MCP1-induced Ca2+ flux by FLIPR analysis. Format: functional, cell-based. A general note: Calcium flux is commonly read through the fluorescence of an indicator in the cells.
For series [3], the target named is Voltage-gated inwardly rectifying potassium channel KCNH2 (Homo sapiens, UniProt Q12809).
Chain of Voltage-gated inwardly rectifying potassium channel KCNH2 (Q12809 whole entry): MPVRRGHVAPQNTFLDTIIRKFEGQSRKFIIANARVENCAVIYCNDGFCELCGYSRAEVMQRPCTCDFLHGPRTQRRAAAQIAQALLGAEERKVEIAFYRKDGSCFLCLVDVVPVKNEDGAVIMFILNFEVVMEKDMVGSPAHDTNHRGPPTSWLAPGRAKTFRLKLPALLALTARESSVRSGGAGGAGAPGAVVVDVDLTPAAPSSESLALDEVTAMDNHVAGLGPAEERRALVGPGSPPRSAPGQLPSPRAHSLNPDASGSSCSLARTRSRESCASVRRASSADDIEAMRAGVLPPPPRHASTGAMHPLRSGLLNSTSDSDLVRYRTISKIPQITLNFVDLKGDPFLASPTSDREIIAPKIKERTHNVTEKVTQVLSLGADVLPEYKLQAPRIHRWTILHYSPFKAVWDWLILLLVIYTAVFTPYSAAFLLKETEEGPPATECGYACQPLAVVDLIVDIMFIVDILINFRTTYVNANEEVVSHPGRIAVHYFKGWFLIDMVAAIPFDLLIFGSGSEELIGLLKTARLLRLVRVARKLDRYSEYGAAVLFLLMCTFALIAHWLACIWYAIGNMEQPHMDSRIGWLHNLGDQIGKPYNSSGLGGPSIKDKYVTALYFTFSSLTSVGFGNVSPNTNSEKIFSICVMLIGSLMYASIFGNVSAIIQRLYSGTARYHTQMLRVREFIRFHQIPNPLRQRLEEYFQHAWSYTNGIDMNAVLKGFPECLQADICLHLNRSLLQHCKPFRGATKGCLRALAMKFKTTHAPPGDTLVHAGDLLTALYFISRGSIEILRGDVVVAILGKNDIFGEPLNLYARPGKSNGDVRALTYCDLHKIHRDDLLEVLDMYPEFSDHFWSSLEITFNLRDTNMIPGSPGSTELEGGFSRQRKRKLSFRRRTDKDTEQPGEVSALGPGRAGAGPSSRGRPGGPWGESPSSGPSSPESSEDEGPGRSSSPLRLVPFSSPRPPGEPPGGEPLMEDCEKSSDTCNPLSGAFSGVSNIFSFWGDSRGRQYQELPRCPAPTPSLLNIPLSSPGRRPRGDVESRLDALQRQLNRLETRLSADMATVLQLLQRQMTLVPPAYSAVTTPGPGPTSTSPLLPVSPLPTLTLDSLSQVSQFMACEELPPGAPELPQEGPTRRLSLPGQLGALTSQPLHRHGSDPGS
Series [4] concerns the target T1, C-C chemokine receptor type 2. Put plainly: Displacement of 125I-MCP1 from human CCR2 receptor expressed in human HEK cell membrane. It counts as cell membranes, HEK293.
The nature of series [5]: Aqueous solubility at pH 7. 4. Format: physicochemical. The following applies: buffer.
Series [6] is described as follows: Intrinsic clearance in rat hepatocytes assessed per 10^6 cells. It counts as ADME, cell-based, Hepatocyte. The following applies: read-out: CLH.
A further series concerns the target Cytochrome P450 2D6 (Homo sapiens, UniProt P10635). Put plainly: Inhibition of CYP2D6. It counts as ADME.
Series [7] is described as follows: Oral bioavailability in rat. It counts as ADME, organism-based. The following applies: in vivo.
Series [8] can be described thus: Volume of distribution in rat. Format: ADME, organism-based. The following applies: in vivo.
Series [9] in a line: Clearance in iv dosed rat. Format: ADME, organism-based. The following applies: in vivo.
The nature of series [10]: Half life in rat. Format: ADME, organism-based. The following applies: in vivo.
A short description of series [11]: Fraction unbound in rat plasma. Format: ADME, cell-free.
Series [12] is described as follows: Intrinsic clearance in human microsomes assessed per mg of protein. Format: ADME, Microsome.
The nature of series [13]: Fraction unbound in human plasma. Format: ADME, cell-free.
The target of the next series is Cytochrome P450 3A4 (Homo sapiens, UniProt P08684). The series is described as follows: Inhibition of CYP3A4. Format: ADME.
Chain of Cytochrome P450 3A4 (P08684 whole entry): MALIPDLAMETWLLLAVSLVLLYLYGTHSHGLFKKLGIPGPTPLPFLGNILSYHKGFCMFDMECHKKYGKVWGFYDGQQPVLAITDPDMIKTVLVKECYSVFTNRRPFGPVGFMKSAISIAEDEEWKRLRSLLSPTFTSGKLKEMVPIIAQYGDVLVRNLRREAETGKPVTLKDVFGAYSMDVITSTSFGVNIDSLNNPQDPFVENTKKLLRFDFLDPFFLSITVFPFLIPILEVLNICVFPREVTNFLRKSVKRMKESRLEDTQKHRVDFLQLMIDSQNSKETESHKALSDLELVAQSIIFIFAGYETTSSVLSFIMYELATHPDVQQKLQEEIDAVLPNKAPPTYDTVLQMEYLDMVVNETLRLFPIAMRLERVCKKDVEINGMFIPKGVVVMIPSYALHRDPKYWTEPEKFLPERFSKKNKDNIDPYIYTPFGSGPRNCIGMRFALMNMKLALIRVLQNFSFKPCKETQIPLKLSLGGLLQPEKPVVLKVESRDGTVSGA
Series [14] can be described thus: Lipophilicity, log D of the compound at pH 7.4. It counts as physicochemical. The following applies: buffer.
A short description of series [15]: Lipophilicity, log P of the compound at pH 7.4. The following applies: buffer. It counts as physicochemical.
Series [16] is described as follows: Dissociation constant, pKa of the compound. Format: physicochemical.

T1 sequence (P41597 whole entry): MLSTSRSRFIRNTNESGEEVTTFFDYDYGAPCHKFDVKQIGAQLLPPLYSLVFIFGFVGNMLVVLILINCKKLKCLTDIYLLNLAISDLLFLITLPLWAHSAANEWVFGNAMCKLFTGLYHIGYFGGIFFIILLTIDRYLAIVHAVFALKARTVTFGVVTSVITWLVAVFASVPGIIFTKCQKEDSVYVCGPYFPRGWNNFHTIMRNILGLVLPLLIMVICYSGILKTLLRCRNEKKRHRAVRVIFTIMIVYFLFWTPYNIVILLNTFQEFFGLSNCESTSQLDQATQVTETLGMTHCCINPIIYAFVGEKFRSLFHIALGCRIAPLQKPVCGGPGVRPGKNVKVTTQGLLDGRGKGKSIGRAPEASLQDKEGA
Chain of Cytochrome P450 2D6 (P10635 whole entry): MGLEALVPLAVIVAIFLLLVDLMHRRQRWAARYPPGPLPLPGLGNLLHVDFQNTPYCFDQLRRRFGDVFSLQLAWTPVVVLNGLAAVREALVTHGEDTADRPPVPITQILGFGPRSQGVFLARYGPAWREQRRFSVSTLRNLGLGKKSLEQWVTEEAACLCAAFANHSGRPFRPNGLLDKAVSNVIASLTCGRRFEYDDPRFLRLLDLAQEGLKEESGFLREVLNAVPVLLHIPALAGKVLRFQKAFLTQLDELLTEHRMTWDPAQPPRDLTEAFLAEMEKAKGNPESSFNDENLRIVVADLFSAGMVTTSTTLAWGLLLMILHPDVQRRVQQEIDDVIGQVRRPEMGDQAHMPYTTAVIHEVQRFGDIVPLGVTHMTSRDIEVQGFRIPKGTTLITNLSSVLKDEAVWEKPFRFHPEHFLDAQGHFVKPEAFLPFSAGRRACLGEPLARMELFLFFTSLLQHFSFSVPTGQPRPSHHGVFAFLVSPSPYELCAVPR

As to `O=C(Nc1ccc(Cl)c(Cl)c1)N1CCN(C[C@@H]2CCCN(Cc3ccccc3)C2)CC1`, the IC50 in [1] turned out to be 99 nM; in series [2], 244 nM.

For `O=C(Nc1cccc(Cl)c1)N1CCN(C[C@@H]2CCCN(C3CC3)C2)CC1`, the IC50 in series [1] was determined as 171 nM; in [2], 202 nM.

For `O=C(Nc1ccccc1)N1CCN(C[C@@H]2CCCN(C3CC3)C2)CC1`, the IC50 in series [1] was 710 nM; in [2], greater than 3000 nM.

Regarding `CCN1CCCC(CN2CCN(C(=O)Nc3ccc(Cl)c(Cl)c3)CC2)C1` (racemic), the values for the IC50 in series [1], in [2] and in [3] were 123 nM, 627 nM and 4300 nM, respectively.

On to `O=C(Nc1ccc(F)c(Cl)c1)N1CCN(C[C@@H]2CCCN(C3CC3)C2)CC1`, for which the IC50 turned out to be 50 nM in series [1], 75 nM in series [2] and 14000 nM in series [3].

In turn, `COc1ccc(NC(=O)N2CCN(C[C@@H]3CCCN(C4CC4)C3)CC2)cc1` gave an IC50 in [1] of 1460 nM.

As for `O=C(Nc1ccc(Cl)c(Cl)c1)N1CCN(C[C@@H]2CCCN(CCc3ccccc3)C2)CC1`, the IC50 in [1] was found to be 5 nM; in series [2], 42 nM.

`CCN1CCOC(C(=O)N2CCN(C(=O)Nc3ccc(Cl)c(Cl)c3)CC2)C1` (racemic): the IC50 in series [1] is 2570 nM; in [2] it was greater than 1000 nM; in series [3], 5000 nM.

Regarding `CC(C)N1CCO[C@@H](CN2CCN(C(=O)Nc3ccc(Cl)c(Cl)c3)CC2)C1`, the IC50 turned out to be 17 nM in [1], 42 nM in series [2] and 6300 nM in series [3].

`CC(C)N1CCN[C@@H](CN2CCN(C(=O)Nc3ccc(Cl)c(Cl)c3)CC2)C1`: the figures for the IC50 in series [1] and in [2] were 26 nM and 32 nM, respectively.

For `CCN1CCO[C@@H](CN2CCN(C(=O)Nc3ccc(Cl)c(Cl)c3)CC2)C1`, the IC50 in [1] is 64 nM; in [2], 277 nM; in [3], 7900 nM.

As to `Cc1ccc(NC(=O)N2CCN(C[C@@H]3CCCN(C4CC4)C3)CC2)cc1Cl`, the IC50 in [1] came to 27 nM; in series [2], 184 nM; in series [3], 7100 nM.

For the compound `O=C(Nc1ccc(Cl)c(C(F)(F)F)c1)N1CCN(C[C@@H]2CCCN(C3CC3)C2)CC1`, the IC50 was 35 nM in series [1], 421 nM in series [2] and 6300 nM in series [3].

As to `CN1CCN(C)C(C(=O)N2CCN(C(=O)Nc3ccc(Cl)c(Cl)c3)CC2)C1` (racemic), the IC50 in series [1] was determined as 5500 nM; in series [3] it was 13000 nM.

In the case of `CCN1CCNC(CN2CCN(C(=O)Nc3ccc(Cl)c(Cl)c3)CC2)C1` (racemic), the IC50 stood at 797 nM in [1] and 8900 nM in series [3].

Turning to `CS(=O)(=O)c1cccc(NC(=O)N2CCN(C[C@@H]3CCCN(C4CC4)C3)CC2)c1`, the IC50 in [1] is greater than 10000 nM.

Consider `CN1CCN[C@@H](C(=O)N2CCN(C(=O)Nc3ccc(Cl)c(Cl)c3)CC2)C1`, for which the IC50 in [1] turned out to be 69 nM; in [2], 362 nM; in series [3] it was 20000 nM.

Turning to `O=C(Nc1cccc(C(F)(F)F)c1)N1CCN(C[C@@H]2CCCN(C3CC3)C2)CC1`, the IC50 in series [1] is 98 nM; in series [2], 578 nM; in series [3], 13000 nM.

For the compound `CCN1CCN[C@@H](C(=O)N2CCN(C(=O)Nc3ccc(Cl)c(Cl)c3)CC2)C1`, the IC50 stood at 21 nM in series [1] and 55 nM in series [2].

Take `O=C(Nc1ccccc1Cl)N1CCN(C[C@@H]2CCCN(C3CC3)C2)CC1`: the IC50 in [1] is greater than 10000 nM.

Turning to `O=C(Nc1ccc(Cl)c(Cl)c1)N1CCN(C[C@H]2CN(C3CC3)CCO2)CC1`, the half-inhibitory concentration (IC50) in series [1] worked out at 267 nM; in series [2] it was 262 nM.

Compound `CN1CCCC(CN2CCN(C(=O)Nc3ccc(Cl)c(Cl)c3)CC2)C1` (stereo unspecified) returned a Ki in [4] of 400 nM. For the same compound, the IC50 in series [1] was determined as 170 nM; in [2] it was 965 nM; in series [3], 1600 nM.

Consider `O=C(Nc1ccc(Cl)c(Cl)c1)N1CCN(C(=O)[C@H]2CN(C3CC3)CCN2)CC1`, for which the values for the IC50 in series [1], in [2] and in [3] were 32 nM, 38 nM and 19000 nM, respectively.

In the case of `O=C(Nc1ccc(Cl)c(Cl)c1)N1CCN(CC2CCCNC2)CC1` (racemic), the values for the IC50 in series [1] and in series [2] were 780 nM and 950 nM, respectively.

Take `CCN1CCC[C@@H](CN2CCN(C(=O)Nc3ccc(Cl)c(Cl)c3)CC2)C1`: the IC50 in series [1] came to 37 nM; in [2], 174 nM; in series [3] it was 2100 nM.

Regarding `N#Cc1ccc(NC(=O)N2CCN(C[C@@H]3CCCN(C4CC4)C3)CC2)cc1`, the IC50 in [1] is 449 nM; in [2], 4360 nM.

For the compound `N#Cc1cccc(NC(=O)N2CCN(C[C@@H]3CCCN(C4CC4)C3)CC2)c1`, the IC50 worked out at 1050 nM in [1] and 5870 nM in series [2].

The compound `CCN1CCC[C@H](CN2CCN(C(=O)Nc3ccc(Cl)c(Cl)c3)CC2)C1` came in with an IC50 in [1] of 1180 nM.

With `CCN1CCC[C@@H](C(=O)N2CCN(C(=O)Nc3ccc(Cl)c(Cl)c3)CC2)C1`, the values for the IC50 in series [1] and in [2] were 856 nM and 588 nM, respectively.

Turning to `O=C(Nc1ccc(Br)cc1)N1CCN(C[C@@H]2CCCN(C3CC3)C2)CC1`, the figures for the IC50 in series [1], in series [2] and in [3] were 58 nM, 162 nM and 7100 nM, respectively.

With `O=C(Nc1ccc(Cl)cc1)N1CCN(C[C@@H]2CCCN(C3CC3)C2)CC1`, the IC50 in series [1] was determined as 127 nM; in [2], 220 nM; in [3], 14000 nM.

Take `O=C(Nc1ccc(Cl)c(Cl)c1)N1CCN(C[C@@H]2CCCN(CCCc3ccccc3)C2)CC1`: the IC50 came to 64 nM in [1], 280 nM in series [2] and 400 nM in [3].

`O=C(Nc1ccc(C(F)(F)F)cc1)N1CCN(C[C@@H]2CCCN(C3CC3)C2)CC1`: the IC50 was 68 nM in [1] and 593 nM in series [2].

Consider `O=C(Nc1ccc(C(F)(F)F)c(Cl)c1)N1CCN(C[C@@H]2CCCN(C3CC3)C2)CC1`, for which the IC50 in series [1] was found to be 17 nM; in [2], 31 nM.

With `O=C(Nc1ccc(Cl)c(Cl)c1)N1CCN(C[C@@H]2CCCN(CC3CC3)C2)CC1`, the IC50 in series [1] amounted to 52 nM; in series [2], 161 nM.

Compound `O=C(Nc1ccc(Cl)c(Cl)c1)N1CCN(C[C@@H]2CCCN(C3CC3)C2)CC1` displayed a solubility in [5] of 290 µM (≈ 119 µg/mL). Moreover, the hepatocyte CLint in [6] stood at 11 µL/min/1e6 cells. In addition, the IC50 in series [1] amounted to 10 nM; against Cytochrome P450 2D6, 3100 nM; in series [2], 64 nM; on Cytochrome P450 3A4 it was 1600 nM. In addition, in series [7], the bioavailability turned out to be 11%. In addition, the Vd in series [8] was determined as 8 L/kg. The clearance in series [9] is 24 mL/min/kg. Further, the half-life in [10] is 5 h. For the same compound, the fraction unbound in [11] and in series [13] was 0.05 each time. The compound further came in with a microsomal CLint in series [12] of 5 µL/min/mg.

For `CC(C)N1CCC[C@@H](CN2CCN(C(=O)Nc3ccc(Cl)c(Cl)c3)CC2)C1`, the results for the IC50 in series [1], in series [2] and in series [3] were 16 nM, 58 nM and 1300 nM, respectively. The compound further yielded a logD in series [14] of 1.62. In addition, the logP in series [15] worked out at 4.2. In [16], this compound had a pKa of 10.

A word on the IC50: it is the concentration at which inhibition is half-maximal. A word on the Ki: it is a measure of affinity in units of concentration, obtained from inhibition or displacement. By solubility is commonly meant how much of the substance goes into solution per volume. A low value points to little dissolved substance. The term bioavailability denotes the share of a dose that reaches the circulation, judged against a reference dose that is usually intravenous. A higher bioavailability goes with good availability. The term Vd denotes a proportionality between amount in the body and measured concentration, not a real space. For orientation: clearance means the volume of plasma or blood freed of the substance per unit of time. A low value points to a low capacity for elimination. In general, half-life refers to the time in which the quantity being followed falls by half. A low value points to rapid decline. As usually defined, the fraction unbound is free concentration divided by total concentration. A higher fraction unbound goes with much free substance. By microsomal CLint is commonly meant the rate of metabolic loss divided by the concentration. Read a high microsomal CLint as faster metabolism. As a reminder, the logD is the decadic logarithm of the distribution of all forms, ionised or not, between an organic phase and buffer at a given pH. High values mean a more lipophilic compound, low ones a more hydrophilic compound. The logP is a log measure of how a compound divides between an organic and an aqueous phase. Read a low logP as a more hydrophilic compound. For orientation: pKa means the pH at which an ionisable group is half protonated.
